Measurements reported in patent US20220105183A1, “MICRO-NANO STRUCTURE FORMED BY SELF-ASSEMBLING ORGANIC SMALL MOLECULE COMPOUND AND USE THEREOF” (Qingdao University of Science and Technology, priority 2018, published 2022).

Experiments:
Format in all cases: physicochemical
[1] = TEM, cryo-TEM and AFM of the self-assembled micro-nano structure; details: micro-nano structure in aqueous solution, AFM and TEM
Protocol: (§1) Taking the self-assembled micro-nano structure of Compound II-1 as an example, II-1 was dissolved in DMSO (also can be an organic solvent such as ethanol) to prepare a 2 mM storage solution, and a small amount of storage solution was added to deionized water to prepare 20 μM working solution. Took 10 μL and dropped it on copper mesh, observed and analyzed under transmission electron microscope (TEM), cryo-transmission electron microscope. Took 10 μL and dropped it on mica plate, observed and analyzed under atomic force microscope (AFM). In FIGS. 5, A, B, C and D were TEM photographs, cryo-transmission electron microscope photographs, AFM photographs, and AFM analysis data, respectively. According to the photographs and data, II-1 was self-assembled into nanosheets with a diameter of 40-70 nm and a thickness of 3.7-3.9 nm. […]

[2] = DLS particle size / self-assembly of the compounds in aqueous solution; details: 20 μM working solution in deionized water; for DLS particle size peak (nm) / DLS particle size range (nm): micro-nano structure
Protocol: The term “particle size” refers to the size of particles, also known as “granularity” or “diameter”. When a certain physical characteristic or physical behavior of the measured particle is closest to a homogeneous sphere (or combination) of a certain diameter, the diameter (or combination) of the sphere is taken as the equivalent particle size of the measured particle. The particle size parameter of the micro-nano structure of the present invention is measured by the principle of dynamic light scattering (DLS), specifically measured by a laser particle size analyzer.
as §1
Among them, the particle size test results of II-12 to II-15 in aqueous solution are shown in FIG. 6, and the results of dynamic light scattering DLS of II-16 to 1-18 are shown in FIG. 7).

[3] = Photothermal effect in vitro under 808 nm laser irradiation; details: for light-to-heat conversion efficiency: 20 μM in water; for light-to-heat conversion efficiency / photothermal effect: 808 nm (2.6 W/cm-2) laser 10 minutes; for temperature rise: 40 μM in water, 808 nm (2.6 W/cm-2) laser, within 10 minutes; for photothermal effect: in water
Protocol: A total of 4 groups of samples, 3 mL was taken and added to a cuvette respectively, and the lid was sealed.
The sample No. 2 was 10 μM II-1, and the specific preparation method is 3 mL deionized water plus 15 μL II-1 stock solution (2 mM, dissolved in DMSO);
The sample No. 3 was 20 μM II-1, and the specific preparation method was that 3 mL deionized water was added 30 μL II-1 stock solution (2 mM, dissolved in DMSO);
The sample No. 4 was 40 μM II-1, and the specific preparation method was that 3 mL deionized water was added 60 μL II-1 stock solution (2 mM, dissolved in DMSO).
Each sample was irradiated with an 808 nm laser for 5 minutes, and the temperature data was recorded every 5 seconds with a thermal imager, and the temperature corresponding to the time was plotted in origin, as shown in the left figure of FIG. 8. […] The temperature of sample No. 2 increased from room temperature 30° C. to 54° C., and the temperature was raised by 24° C. The temperature of sample No. 3 increased from room temperature 30° C. to 62° C., and the temperature was raised by 32° C. The temperature of sample No. 4 increased from room temperature 30° C. to 77° C., and the temperature was raised by 47° C.
Using a method similar to Example 8, 10 μM, 20 μM and 40 μM samples of II-16, II-17 and II-18 were prepared, respectively, they were irradiated under an 808 nm (2.6 W/cm-2) laser for 10 minutes. 40 μM II-16 to 18 samples can rise by 40° C., 36° C. and 18° C. respectively within 10 minutes under laser irradiation.
Using a method similar to that in Example 8, three samples of 20 μM of 1-16, II-17 and II-18 in water were irradiated with 808 nm (2.6 W/cm-2) laser for 10 minutes, and the light-to-heat conversion efficiency calculation result thereof were shown in FIG. 10. […] And II-18 not only has poor light-heat effect, but also has low light-heat conversion efficiency, only 12.9%.

[4] = Photothermal stability, repeated 808 nm irradiation and cooling; details: for reduction of absorbance after 5 times of irradiation: ultraviolet spectra before and after
Protocol: We selected sample No. 3 to test the photothermal stability experiment. As shown in the right figure of FIG. 8, sample No. 3 was irradiated with 808 nm laser for 9 minutes and then the temperature increased from room temperature 30° C. to 62° C., and then allowed to naturally cool down to room temperature, and irradiated with 808 nm laser again for 9 minutes, then naturally cooled down, and repeated for 5 times. […] After 9 minutes of irradiation, the temperature was raised by […], and then returned to room temperature.

[5] = Assembly stability in different media
Protocol: Since II-16 has excellent photothermal properties, its assembly stability in serum-containing medium and in PBS at different temperatures was tested, as shown in FIG. 13.

[6] = 808 nm laser at 2.6 W/cm-2, irradiated and cooled 5 times

Row | Structure (SMILES) | Morphology [1] | DLS particle size peak (nm) [2] [nm] | DLS particle size range (nm) [2] | light-to-heat conversion efficiency [3] [%] | temperature rise [3] [°C] | photothermal effect [3] | reduction of absorbance after 5 times of irradiation [4, 6] [%] | absorbance over time ([5]; at 37° C.) | temperature raised by, first irradiation ([4]; 808 nm laser, after 9 minutes of irradiation) [°C] | temperature on laser irradiation again ([4]; after return to room temperature, second irradiation) | particle size by DLS [2] | temperature in repeated irradiations [4, 6] | aggregation mode (H aggregation) ([5]; serum-containing medium and PBS at different temperatures)
1 | CCN(CC)c1ccc2c(c1)OC1=C(C=C3CCCC(C=CC4=C(C#N)C(=C(C#N)C#N)OC4(C)C)=C3Cl)CCCC1=C2 [II-18] | nano-sheet | 42 | 42-139 nm | 12.9 | 18 | poor photothermal effect | – | – | – | – | – | – | –
2 | CCN1C(=CC=C2CCCC(C=CC3=C(C#N)C(=C(C#N)C#N)OC3(C)C)=C2Cl)C(C)(C)c2ccc3ccccc3c21 [II-14] | nano-sheet | 78 | 27-134 nm | – | – | – | – | – | – | – | – | – | –
3 | CCN1C(=CC=C2CCCC(C=CC3=C(C#N)C(=C(C#N)C#N)OC3(C)C)=C2Cl)Sc2ccccc21 [II-17] | nano-sheet | 10 | 10-86 nm | 25 | 36 | excellent photothermal effect | 75 | – | – | – | – | – | –
4 | CCn1c(=CC=C2CCCC(C=CC3=C(C#N)C(=C(C#N)C#N)OC3(C)C)=C2Cl)c2cccc3cccc1c32 [II-16] | nano-sheet | 199 | 163-293 nm | 56.9 | 40 | excellent photothermal effect | 2 | the absorbance will decrease with time | – | – | – | each time the temperature can rise to the same temperature as the first time | will not change due to changes in external conditions
5 | CC1(C)C(/C=C/C=C/C=C/C=C2\N(CCCCS(=O)(=O)[O-])c3ccc4ccccc4c3C2(C)C)=[N+](CCCCS(=O)(=O)[O-])c2ccc3ccccc3c21.[Na+] [ICG, reference compound] | – | – | – | – | – | – | – | – | 15 | the temperature cannot be increased | could not be detected | – | –

Further lines, with some results ahead:

Row | Morphology [1] | DLS particle size peak (nm) [2] [nm] | DLS particle size range (nm) [2] | light-to-heat conversion efficiency [3] [%] | temperature rise [3] [°C] | photothermal effect [3] | reduction of absorbance after 5 times of irradiation [4, 6] [%] | absorbance over time ([5]; at 37° C.) | temperature raised by, first irradiation ([4]; 808 nm laser, after 9 minutes of irradiation) [°C] | temperature on laser irradiation again ([4]; after return to room temperature, second irradiation) | particle size by DLS [2] | Structure (SMILES) | temperature in repeated irradiations [4, 6] | aggregation mode (H aggregation) ([5]; serum-containing medium and PBS at different temperatures)
6 | nano-sheet | 74 | 40-110 nm | – | – | – | – | – | – | – | – | C#CCOc1ccc(C2CC(=CC=C3N(CC)c4ccccc4C3(C)C)C(Cl)=C(C=CC3=C(C#N)C(=C(C#N)C#N)OC3(C)C)C2)cc1 (centres unmarked) [II-13] | – | –
7 | nano-sheet | 78 | 20-160 nm | – | – | – | – | – | – | – | – | C=CCOc1ccc(C2CC(=CC=C3N(CC)c4ccccc4C3(C)C)C(Cl)=C(C=CC3=C(C#N)C(=C(C#N)C#N)OC3(C)C)C2)cc1 (centres unmarked) [II-12] | – | –
8 | nano-sheet | 60 | 40-110 nm | – | – | – | – | – | – | – | – | C#CCOc1ccc(C2CC(=CC=C3N(CC)c4ccccc4C3(C)C)C(NCCn3ccnc3[N+](=O)[O-])=C(C=CC3=C(C#N)C(=C(C#N)C#N)OC3(C)C)C2)cc1 (centres unmarked) [II-15] | – | –
